Assay results as given in the NIST ThermoML archive (doi:10.1016/j.jct.2016.10.009).

Assay: xn = mol fraction of the nth substance listed
Conditions: Liquid, Vibrating tube method

CC(C)OC(C)C [diisopropyl ether] + CCC(C)O
mass density [kg/m3]
Conditions | x2 = 0 | x2 = 0.2036 | x2 = 0.3227 | x2 = 0.4464 | x2 = 0.4973 | x2 = 0.6595 | x2 = 0.8482
333.15 K, 45000 kPa | – | – | – | 761.8 | 765.4 | 777.4 | 793.2
333.15 K, 50000 kPa | 739.1 | 750.4 | 757.8 | 765.7 | 769.2 | 781.1 | 796.6
333.15 K, 55000 kPa | 743.1 | 754.3 | 761.6 | 769.4 | 772.9 | 784.5 | 799.8
333.15 K, 60000 kPa | 747.1 | 758 | 765.2 | 772.9 | 776.4 | 787.9 | 803
333.15 K, 65000 kPa | 750.9 | 761.7 | 768.8 | 776.4 | 779.8 | 791.2 | 806
333.15 K, 70000 kPa | 754.4 | 765.1 | 772.1 | 779.7 | 783.1 | 794.3 | 808.9
333.15 K, 80000 kPa | 761.3 | 771.8 | 778.6 | 785.9 | 789.2 | 800.2 | 814.6
333.15 K, 90000 kPa | 767.7 | 778 | 784.7 | 791.9 | 795.1 | 805.9 | 820
333.15 K, 100000 kPa | 773.7 | 783.7 | 790.3 | 797.4 | 800.5 | 811.1 | 824.9
333.15 K, 110000 kPa | 779.4 | 789.3 | 795.8 | 802.7 | 805.9 | 816.1 | 829.8
333.15 K, 120000 kPa | 784.7 | 794.5 | 800.9 | 807.7 | 810.8 | 820.9 | 834.3
333.15 K, 130000 kPa | 789.9 | 799.5 | 805.9 | 812.5 | 815.6 | 825.6 | 838.8
333.15 K, 140000 kPa | 794.8 | 804.2 | 810.4 | 817 | 820 | 830 | 842.9
353.19 K, 100 kPa | – | 672.3 | 682 | 692.5 | – | 712.8 | 732.9
353.19 K, 1000 kPa | 659.5 | 674.1 | 683.6 | 694.1 | 698.7 | 714.2 | 734.2
353.19 K, 5000 kPa | 667.6 | 681.5 | 690.7 | 700.7 | 705.1 | 720 | 739.3
353.19 K, 10000 kPa | 676.5 | 689.7 | 698.5 | 708 | 712.3 | 726.7 | 745.2
353.19 K, 15000 kPa | 684.4 | 697.1 | 705.5 | 714.7 | 718.9 | 732.8 | 750.7
353.19 K, 20000 kPa | 691.5 | 703.8 | 711.9 | 720.9 | 724.9 | 738.3 | 755.8
353.19 K, 25000 kPa | 698 | 709.9 | 717.9 | 726.6 | 730.4 | 743.5 | 760.6
353.19 K, 30000 kPa | 704 | 715.7 | 723.4 | 731.9 | 735.7 | 748.5 | 765.1
353.19 K, 35000 kPa | 709.7 | 721 | 728.6 | 736.8 | 740.6 | 753.1 | 769.3
353.19 K, 40000 kPa | 714.8 | 725.9 | 733.3 | 741.5 | 745.1 | 757.3 | 773.4
353.19 K, 45000 kPa | 719.7 | 730.8 | 738 | 745.9 | 749.5 | 761.5 | 777.3
353.19 K, 50000 kPa | 724.6 | 735.3 | 742.4 | 750.3 | 753.8 | 765.6 | 781
353.19 K, 55000 kPa | 728.9 | 739.4 | 746.5 | 754.3 | 757.7 | 769.4 | 784.5
353.19 K, 60000 kPa | 733.2 | 743.6 | 750.5 | 758.1 | 761.6 | 773 | 788
353.19 K, 65000 kPa | 737.2 | 747.6 | 754.3 | 761.9 | 765.2 | 776.6 | 791.3
353.19 K, 70000 kPa | 741.1 | 751.3 | 758 | 765.5 | 768.8 | 780 | 794.6
353.19 K, 80000 kPa | 748.4 | 758.3 | 765 | 772.2 | 775.4 | 786.3 | 800.5
353.19 K, 90000 kPa | 755.4 | 765.1 | 771.5 | 778.6 | 781.8 | 792.4 | 806.4
353.19 K, 100000 kPa | 761.6 | 771.2 | 777.6 | 784.5 | 787.6 | 798 | 811.8
353.19 K, 110000 kPa | 767.8 | 777.1 | 783.4 | 790.2 | 793.3 | 803.5 | 816.9
353.19 K, 120000 kPa | 773.4 | 782.6 | 788.8 | 795.5 | 798.5 | 808.6 | 821.8
353.19 K, 130000 kPa | 778.8 | 787.8 | 793.9 | 800.6 | 803.5 | 813.4 | 826.5
353.19 K, 140000 kPa | 784 | 792.9 | 798.9 | 805.4 | 808.4 | 818.2 | 831
373.24 K, 1000 kPa | 635.6 | 649.8 | 659.4 | 670 | 674.8 | 690.8 | 711.2
373.24 K, 5000 kPa | 645.5 | 659 | 668 | 678.1 | 682.5 | 697.8 | 717.4
373.24 K, 10000 kPa | 656.1 | 668.7 | 677.2 | 686.9 | 691.1 | 705.6 | 724.3
373.24 K, 15000 kPa | 665.3 | 677.4 | 685.5 | 694.7 | 698.8 | 712.7 | 730.7
373.24 K, 20000 kPa | 673.5 | 685.1 | – | – | – | – | –
